The text below walks through data of the supplement of paper PMC10307832.

Common to all, as to assay: relative viability (nuclei count vs DMSO), 5 days (fraction); higher = more cells survive
Compound in test [1]: CC1=CC(=NN1)NC2=CC(=NC(=N2)/C=C/C3=CC=CC=C3)N4CCN(CC4)C + O=C(CCCCCCC(=O)Nc1ccccc1)NO [Vorinostat] (partner 1 µM)
A digest of the protocol:
(§1)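 Relative viability divides the nuclei count in treated wells by that in vehicle wells. Lung cancer cell lines were seeded in 1536-well plates, dosed by pin tool the next day, and fixed and stained after 5 days in one step with final 0.05% Triton X-100, 1% formaldehyde and 1 ug/ml Hoechst. Dosing was a single drug or a fixed anchor-drug dose plus five library-drug doses (not always all listed) in √10 steps, and values are medians of duplicate plates imaged at 4×.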

Compound in the test “Obatoclax + AZD7762”: COC1=CC(c2cc3ccccc3[nH]2)=N/C1=C\c1[nH]c(C)cc1C [Obatoclax] + NC(=O)Nc1cc(-c2cccc(F)c2)sc1C(=O)N[C@H]1CCCNC1 [AZD7762] (partner 0.2 µM)
Summed up:
as §1

Compound in the test “Bortezomib + Dasatinib”: CC(C)C[C@H](NC(=O)[C@H](Cc1ccccc1)NC(=O)c1cnccn1)B(O)O [Bortezomib] + Cc1nc(Nc2ncc(C(=O)Nc3c(C)cccc3Cl)s2)cc(N2CCN(CCO)CC2)n1 [Dasatinib] (partner 0.075 µM)
Summed up: as §1

Compound in test [2]: CC1=CC(=NN1)NC2=CC(=NC(=N2)/C=C/C3=CC=CC=C3)N4CCN(CC4)C + CC(C)C[C@H](NC(=O)[C@H](Cc1ccccc1)NC(=O)c1cnccn1)B(O)O [Bortezomib] (partner 0.002 µM)
A digest of the protocol: as §1

As to NCI-H3122, the relative viability in test [1] (first compound 0.08 µM) amounted to 1.03; in test [1] (first compound 0.253 µM), 0.977; in test [1] (first compound 0.8 µM), 0.989; in test [1] (first compound 2.53 µM), 0.879; in test [1] (first compound 8 µM) it was 0.511; in the test with Obatoclax + AZD7762 (first compound 0.01 µM), 1.03. In addition, the relative viability with Obatoclax + AZD7762 (first compound 0.03162 µM) turned out to be 0.962; in the test with Obatoclax + AZD7762 (first compound 0.1 µM), 0.971; in the test with Obatoclax + AZD7762 (first compound 0.3162 µM) it was 0.949; with Obatoclax + AZD7762 (first compound 1 µM), 1; with Bortezomib + Dasatinib (first compound 0.0002 µM) it was 0.878; with Bortezomib + Dasatinib (first compound 0.000632 µM), 0.873. The relative viability with Bortezomib + Dasatinib (first compound 0.002 µM) stood at 0.901; in the test with Bortezomib + Dasatinib (first compound 0.006325 µM) it was 0.233; with Bortezomib + Dasatinib (first compound 0.02 µM), 0.0847; in test [2] (first compound 0.08 µM) it was 0.92; in test [2] (first compound 0.253 µM), 0.924; in test [2] (first compound 0.8 µM), 1.07. The relative viability in test [2] (first compound 2.53 µM) is 1.02; in test [2] (first compound 8 µM) it was 0.542.
PC-3 [JPC-3]: the relative viability in test [1] (first compound 0.08 µM) was 0.766; in test [1] (first compound 0.253 µM), 0.876; in test [1] (first compound 0.8 µM), 0.814; in test [1] (first compound 2.53 µM) it was 0.543; in test [1] (first compound 8 µM), 0.333; with Obatoclax + AZD7762 (first compound 0.01 µM) it was 0.825. Also, the relative viability is 0.834 with Obatoclax + AZD7762 (first compound 0.03162 µM); 0.808 in the test with Obatoclax + AZD7762 (first compound 0.1 µM); 0.607 with Obatoclax + AZD7762 (first compound 0.3162 µM); 0.419 with Obatoclax + AZD7762 (first compound 1 µM); 0.961 with Bortezomib + Dasatinib (first compound 0.0002 µM); 0.994 in the test with Bortezomib + Dasatinib (first compound 0.000632 µM). For the same cell line, the relative viability was determined as 0.991 in the test with Bortezomib + Dasatinib (first compound 0.002 µM); 0.199 in the test with Bortezomib + Dasatinib (first compound 0.006325 µM); 0.106 in the test with Bortezomib + Dasatinib (first compound 0.02 µM); 0.836 in test [2] (first compound 0.08 µM); 0.968 in test [2] (first compound 0.253 µM); 0.838 in test [2] (first compound 0.8 µM). The relative viability was 0.853 in test [2] (first compound 2.53 µM) and 0.761 in test [2] (first compound 8 µM).
As to PC-14, the relative viability in test [1] (first compound 0.08 µM) stood at 0.673; in test [1] (first compound 0.253 µM), 0.732; in test [1] (first compound 0.8 µM), 0.491; in test [1] (first compound 2.53 µM), 0.0475; in test [1] (first compound 8 µM), 0.041; with Obatoclax + AZD7762 (first compound 0.01 µM), 0.304. The relative viability was 0.328 in the test with Obatoclax + AZD7762 (first compound 0.03162 µM); 0.269 in the test with Obatoclax + AZD7762 (first compound 0.1 µM); 0.339 with Obatoclax + AZD7762 (first compound 0.3162 µM); 0.112 in the test with Obatoclax + AZD7762 (first compound 1 µM); 0.294 with Bortezomib + Dasatinib (first compound 0.0002 µM); 0.236 with Bortezomib + Dasatinib (first compound 0.000632 µM). Further, the relative viability in the test with Bortezomib + Dasatinib (first compound 0.002 µM) was 0.168; with Bortezomib + Dasatinib (first compound 0.006325 µM) it was 0.028; with Bortezomib + Dasatinib (first compound 0.02 µM), 0.0371; in test [2] (first compound 0.08 µM) it was 0.748; in test [2] (first compound 0.253 µM), 0.947; in test [2] (first compound 0.8 µM), 0.839. The relative viability is 0.488 in test [2] (first compound 2.53 µM) and 0.0557 in test [2] (first compound 8 µM).
RERF-LC-KJ: the relative viability in test [1] (first compound 0.08 µM) came to 0.523; in test [1] (first compound 0.253 µM) it was 0.73; in test [1] (first compound 0.8 µM), 0.577; in test [1] (first compound 2.53 µM), 0.406; in test [1] (first compound 8 µM), 0.301; in the test with Obatoclax + AZD7762 (first compound 0.01 µM) it was 1.04. The relative viability with Obatoclax + AZD7762 (first compound 0.03162 µM) was 0.914; in the test with Obatoclax + AZD7762 (first compound 0.1 µM) it was 0.732; with Obatoclax + AZD7762 (first compound 0.3162 µM), 0.838; with Obatoclax + AZD7762 (first compound 1 µM) it was 0.923; with Bortezomib + Dasatinib (first compound 0.0002 µM), 0.833; with Bortezomib + Dasatinib (first compound 0.000632 µM), 0.695. Moreover, the relative viability in the test with Bortezomib + Dasatinib (first compound 0.002 µM) is 0.946; in the test with Bortezomib + Dasatinib (first compound 0.006325 µM), 0.219; in the test with Bortezomib + Dasatinib (first compound 0.02 µM), 0.234; in test [2] (first compound 0.08 µM), 1.09; in test [2] (first compound 0.253 µM), 1.16; in test [2] (first compound 0.8 µM), 1.12. The relative viability in test [2] (first compound 2.53 µM) was 0.748; in test [2] (first compound 8 µM) it was 0.381.
